Laboratory results taken from patent US9688736B2, “Compound for treatment of severe hypoglycemia” (Eli Lilly and Company, priority 2013, dated 2017).
Like-named read-outs stand apart in the source and are kept apart here. Square brackets hold non-standard residues; d marks the D form. Peptide text beside a SMILES is read from it. Aib = CC(C)(N)C(=O)O

Columns and labels:
[1] = assay type: physicochemical
Protocol: The compound of SEQ ID NO: 2 is dissolved in 20 mM Tris-HCl/H2O, pH 8 to a 1 mg/mL concentration (peptide content), and filtered through a 0.22 micron filter (Millex, SLGV004SL). Solution is transferred to three vials: one for 4° C.; one for 30° C. and one for 40° C. […]. Samples are visually assessed at different time points for turbidity and phase separation.

[2] = Physical stability test using Thioflavin T binding assay (fibrillation); assay type: physicochemical; conditions: 25° C.; for Thioflavin T fluorescence: 1 mg/mL, stirred 300 rpm
Protocol: Fibrillation is a common problem when glucagon is formulated in aqueous solution. To assess the level of fibrillation of the compound of the present invention, a Thioflavin T binding assay is performed.
All samples are mechanically stressed at 25° C. in a magnetic stir plate set at 300 rpm. […] Raw data is collected with Softmax Pro 5.4.1 (Molecular Devices) and imported to Excel.

male C57BL6 mice = test: Effects of compound on blood glucose levels in C57/B16 male mice; assay type: in vivo; conditions: for Blood glucose levels after dosing: mean ± SEM, n=4
Protocol: To determine the effects of the compound of SEQ ID NO: 2 on blood glucose levels, the compound is administered to C57/B 16 mice. Three month old male C57BL6 mice (Harlan Laboratories) are used Animals are individually housed in a temperature-controlled (24° C.) facility with a 12 hour light/dark cycle, and have free access to food and water. After 1 week acclimation to the facility, mice are randomized to treatment groups (n=4/group). Test compound is formulated in Buffer 2 (see Physical stability test using Thioflavin T binding assay). On the morning of test, food is removed at 08:00 AM. Two hours after food is removed, the test compound is given subcutaneously at 0, 1, 3 or 10 μg/kg doses. Blood glucose is measured at time 0, 15, 30, 60 and 120 minutes after test compound administration with an ACCU-CHECK® (Roche Diagnostics) glucometer. […] Results are expressed as mean ±standard error mean (SEM) of 4 mice per group.
Blood glucose levels at 10 μg/kg of compound of SEQ ID NO: 2 is taken as the maximum value.

[3] = target: T1, human glucagon receptor (hGR) (Homo sapiens, UniProt P47871); test: Human glucagon receptor binding assay (SPA); conditions: 293HEK membranes, 125I-labelled glucagon
T1 construct: expressed in transfected cells; host or cells: 293HEK (crude plasma membranes)
T1 sequence (P47871 26-477): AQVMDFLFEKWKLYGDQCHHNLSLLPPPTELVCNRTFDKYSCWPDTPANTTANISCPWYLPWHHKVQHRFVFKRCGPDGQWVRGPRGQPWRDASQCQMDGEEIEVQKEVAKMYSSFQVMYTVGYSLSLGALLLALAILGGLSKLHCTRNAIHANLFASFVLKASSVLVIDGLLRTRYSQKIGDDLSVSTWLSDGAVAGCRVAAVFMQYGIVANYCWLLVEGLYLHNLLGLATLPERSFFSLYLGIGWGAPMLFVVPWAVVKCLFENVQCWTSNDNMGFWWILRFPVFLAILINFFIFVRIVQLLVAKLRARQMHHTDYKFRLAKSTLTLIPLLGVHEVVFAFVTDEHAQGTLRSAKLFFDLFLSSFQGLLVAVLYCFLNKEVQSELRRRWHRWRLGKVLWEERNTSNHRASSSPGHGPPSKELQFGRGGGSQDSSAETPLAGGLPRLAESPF
Protocol: Plates are sealed, mixed end over end, and read with a MicroBeta® scintillation counter after 12 hours of settling time at room temperature.

[4] = target: T2, mouse glucagon receptor (mGR) (Mus musculus, UniProt Q61606); test: Mouse glucagon receptor binding assay (SPA); conditions: 293HEK membranes, 125I-labelled glucagon
T2 construct: expressed in transfected cells; host or cells: 293HEK cells in suspension culture (crude plasma membranes)
T2 sequence (Q61606 27-485): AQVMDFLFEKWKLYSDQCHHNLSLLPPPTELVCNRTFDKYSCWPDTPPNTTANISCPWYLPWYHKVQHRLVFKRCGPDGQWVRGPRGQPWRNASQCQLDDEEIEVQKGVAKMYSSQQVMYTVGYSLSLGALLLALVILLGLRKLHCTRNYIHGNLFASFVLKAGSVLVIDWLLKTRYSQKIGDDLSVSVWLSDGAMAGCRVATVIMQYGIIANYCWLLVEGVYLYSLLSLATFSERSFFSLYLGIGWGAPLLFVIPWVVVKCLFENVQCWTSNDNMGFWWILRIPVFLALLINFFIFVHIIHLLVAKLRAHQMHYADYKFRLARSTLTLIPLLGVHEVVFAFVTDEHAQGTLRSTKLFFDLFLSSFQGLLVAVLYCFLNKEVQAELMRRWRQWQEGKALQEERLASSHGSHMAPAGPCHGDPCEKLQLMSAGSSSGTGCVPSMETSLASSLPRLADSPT

[5] = target: T3, human glucagon-like peptide 1 receptor (hGLP-1R) (Homo sapiens, UniProt P43220); test: Glucagon-like-peptide 1 receptor binding assay (SPA); conditions: 293HEK membranes, 125I-labelled GLP-1 amide
T3 construct: expressed in transfected cells; host or cells: 293HEK suspension cells (crude plasma membranes)
T3 sequence (P43220 24-463): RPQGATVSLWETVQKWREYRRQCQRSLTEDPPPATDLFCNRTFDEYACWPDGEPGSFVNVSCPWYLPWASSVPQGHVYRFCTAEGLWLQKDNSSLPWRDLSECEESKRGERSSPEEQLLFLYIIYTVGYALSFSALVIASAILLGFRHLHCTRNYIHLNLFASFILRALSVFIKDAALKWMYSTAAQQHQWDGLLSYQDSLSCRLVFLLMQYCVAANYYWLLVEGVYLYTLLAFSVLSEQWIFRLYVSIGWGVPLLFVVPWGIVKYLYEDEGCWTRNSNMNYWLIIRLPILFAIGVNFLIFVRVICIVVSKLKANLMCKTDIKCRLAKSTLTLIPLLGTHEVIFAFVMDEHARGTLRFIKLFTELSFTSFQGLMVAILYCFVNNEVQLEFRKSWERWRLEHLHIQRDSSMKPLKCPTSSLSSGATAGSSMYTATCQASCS

human GIP-R = target: T4, human GIP-R (Homo sapiens, UniProt P48546); test: Glucose-dependent insulinotropic peptide receptor binding assay (SPA); conditions: CHO-S membranes, radioiodinated GIP
T4 construct: expressed in transfected cells; host or cells: CHO-S suspension cells (crude plasma membranes)
T4 sequence (P48546 22-466): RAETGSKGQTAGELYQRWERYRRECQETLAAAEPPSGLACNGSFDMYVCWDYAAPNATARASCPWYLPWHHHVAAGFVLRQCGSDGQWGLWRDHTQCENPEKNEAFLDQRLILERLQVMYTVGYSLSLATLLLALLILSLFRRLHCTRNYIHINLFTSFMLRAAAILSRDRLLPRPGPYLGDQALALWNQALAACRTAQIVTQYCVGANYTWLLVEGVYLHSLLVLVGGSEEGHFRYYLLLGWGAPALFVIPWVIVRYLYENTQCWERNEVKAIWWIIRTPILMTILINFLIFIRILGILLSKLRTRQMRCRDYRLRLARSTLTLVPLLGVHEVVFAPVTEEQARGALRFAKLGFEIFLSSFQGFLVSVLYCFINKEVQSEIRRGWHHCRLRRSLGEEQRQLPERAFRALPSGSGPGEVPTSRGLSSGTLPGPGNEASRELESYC

[6] = target: T1, human glucagon receptor (hGR); test: Human glucagon receptor stimulated cAMP functional assay; assay type: cell-based; conditions: hGR-HEK293 cells, relative EC50, HTRF cAMP
Protocol: Cells are stimulated with glucagon, buffer controls, or Test samples, and the cAMP generated within the cell is quantitated using the CisBio cAMP Dynamic 2 HTRF Assay Kit (62AM4PEC). Briefly, cAMP levels within the cell are detected by binding to the cAMP-d2 capture antibody in the presence of cell lysis buffer. A second detection antibody provided in the kit, anti-cAMP Cryptate, is added to create a competitive sandwich assay. When the detection antibody complex formed there is an increase in the signal that is measured on a Perkin-Elmer Envision® instrument.
The hGR-HEK293 cells are harvested from sub-confluent tissue culture dishes with Enzyme-Free Cell Dissociation Solution (Specialty Media 5-004-B). The cells are pelleted at 100× g at room temperature for 5 minutes then washed twice with phosphate buffered saline (PBS). […] The cells are then pelleted at 100× g at room temperature for 5 minutes. […] Test samples are prepared as 2 mM stocks in DMSO and frozen at −20° C. until needed. […] The reaction is stopped by addition of 20 μL of the cAMP-d2-capture antibody (CisBio) diluted into the CisBio lysis buffer then gently mixed in [sequence] shaker. […] The lysed cell and antibody mixtures are read after 1 hour at room temperature using the Perkin-Elmer Envision®. […]

[7] = pH 8, 120 hours, mechanical stress

4° C. % Main Peak 4 wk ([1]; RP-HPLC, pH 8, 4° C., 4 wk): 95.94%
30° C. % Main Peak 4 wk ([1]; RP-HPLC, pH 8, 30° C., 4 wk): 93.73%
40° C. % Main Peak 4 wk ([1]; RP-HPLC, pH 8, 40° C., 4 wk): 89.54%
% Main Peak Day 0 ([1]; RP-HPLC, pH 8, day 0): 96.26%
Solubility by visual assessment and RP-HPLC ([1]; pH 8): maintains good solubility
RP-HPLC main peak change ([1]; pH 8, 4-wk 30° C. vs 4° C.): < 2.5%
RP-HPLC main peak change ([1]; pH 8, 4-wk 40° C. vs 4° C.): < 7%
30° C. vs 4° C. Recovery 4 wk ([1]; pH 8, total peak area, 4 wk): 101%
40° C. vs 4° C. Recovery 4 wk ([1]; pH 8, total peak area, 4 wk): 99%
Physical stability by visual assessment and Thioflavin T binding [2, 7]: maintains physical stability
Thioflavin T fluorescence ([2]; Buffer 1 (20 mM Tris-HCl pH 8.0), t = 0 h): 193.9 flurescence units
Thioflavin T fluorescence ([2]; Buffer 1 (20 mM Tris-HCl pH 8.0), t = 40 h): 201.6 flurescence units
Thioflavin T fluorescence ([2]; Buffer 1 (20 mM Tris-HCl pH 8.0), t = 120 h): 226.1 flurescence units
Thioflavin T fluorescence ([2]; Buffer 2 (20 mM Tris-HCl, 150 nM NaCl, pH 8.0), t = 0 h): 182.2 flurescence units
Thioflavin T fluorescence ([2]; Buffer 2 (20 mM Tris-HCl, 150 nM NaCl, pH 8.0), t = 40 h): 210.1 flurescence units
Thioflavin T fluorescence ([2]; Buffer 2 (20 mM Tris-HCl, 150 nM NaCl, pH 8.0), t = 120 h): 213.6 flurescence units
Thioflavin T fluorescence ([2]; Buffer 3 (20 mM Tris-HCl, 300 mM sucrose, pH 8.0), t = 0 h): 263.3 flurescence units
Thioflavin T fluorescence ([2]; Buffer 3 (20 mM Tris-HCl, 300 mM sucrose, pH 8.0), t = 40 h): 297.0 flurescence units
Thioflavin T fluorescence ([2]; Buffer 3 (20 mM Tris-HCl, 300 mM sucrose, pH 8.0), t = 120 h): 310.9 flurescence units
Thioflavin T fluorescence ([2]; Buffer 4 (20 mM Tris-HCl, 300 mM sorbitol, pH 8.0), t = 0 h): 260.9 flurescence units
Thioflavin T fluorescence ([2]; Buffer 4 (20 mM Tris-HCl, 300 mM sorbitol, pH 8.0), t = 40 h): 285.1 flurescence units
Thioflavin T fluorescence ([2]; Buffer 4 (20 mM Tris-HCl, 300 mM sorbitol, pH 8.0), t = 120 h): 311.2 flurescence units
Thioflavin T fluorescence ([2]; Buffer 5 (20 mM Tris-HCl, 0.02% Tween 80, pH 8.0), t = 0 h): 251.7 flurescence units
Thioflavin T fluorescence ([2]; Buffer 5 (20 mM Tris-HCl, 0.02% Tween 80, pH 8.0), t = 40 h): 281.7 flurescence units
Thioflavin T fluorescence ([2]; Buffer 5 (20 mM Tris-HCl, 0.02% Tween 80, pH 8.0), t = 120 h): 306.8 flurescence units
Ki [3]: 3.2 ± 0.76 nM
Ki [4]: 8.63 ± 0.71 nM
Ki [5]: > 3380 nM
Ki (human GIP-R): > 2240 nM
EC50 [6]: 0.0658 ± 0.0167 nM
SMILES: CC(C)C[C@H](NC(=O)[C@H](Cc1c[nH]c2ccccc12)NC(=O)[C@H](C)NC(=O)[C@@H](NC(=O)[C@H](Cc1ccccc1)NC(=O)[C@H](CCC(=O)O)NC(=O)[C@H](C)NC(=O)[C@H](C)NC(=O)[C@H](CCCCN)NC(=O)[C@H](CCCCN)NC(=O)C(C)(C)NC(=O)[C@H](CC(=O)O)NC(=O)[C@H](CC(C)C)NC(=O)[C@H](Cc1ccc(O)cc1)NC(=O)[C@H](CCCCN)NC(=O)[C@H](CO)NC(=O)[C@@H](NC(=O)[C@H](CC(=O)O)NC(=O)[C@H](CO)NC(=O)[C@@H](NC(=O)[C@H](Cc1ccccc1)NC(=O)[C@@H](NC(=O)CNC(=O)[C@H](Cc1c[nH]cn1)NC(=O)[C@H](CO)NC(=O)[C@@H](N)Cc1ccc(O)cc1)[C@@H](C)O)[C@@H](C)O)C(C)C)C(C)C)C(=O)N[C@@H](CC(C)C)C(=O)N[C@@H](CCC(=O)O)C(=O)N[C@@H](CCC(=O)O)C(=O)O [SEQ ID NO: 2] (H-YSHGTFTSDVSKYLD[Aib]KKAAEFVAWLLEE-OH; N-terminus assumed)
Fibrillation as measured by the Thioflavin T binding assay [2, 7]: did not demonstrate significant fibrillation
Blood glucose levels after dosing (male C57BL6 mice; 1 μg/kg subcutaneously, 0 minutes): 132.0 ± 4.1 mg/dL
Blood glucose levels after dosing (male C57BL6 mice; 1 μg/kg subcutaneously, 15 minutes): 203.0 ± 15.8 mg/dL
Blood glucose levels after dosing (male C57BL6 mice; 1 μg/kg subcutaneously, 30 minutes): 220.4 ± 21.4 mg/dL
Blood glucose levels after dosing (male C57BL6 mice; 1 μg/kg subcutaneously, 60 minutes): 171.6 ± 10.2 mg/dL
Blood glucose levels after dosing (male C57BL6 mice; 1 μg/kg subcutaneously, 120 minutes): 168.9 ± 3.7 mg/dL
Blood glucose levels after dosing (male C57BL6 mice; 3 μg/kg subcutaneously, 0 minutes): 147.8 ± 2.6 mg/dL
Blood glucose levels after dosing (male C57BL6 mice; 3 μg/kg subcutaneously, 15 minutes): 246.4 ± 13.1 mg/dL
Blood glucose levels after dosing (male C57BL6 mice; 3 μg/kg subcutaneously, 30 minutes): 274.9 ± 16.3 mg/dL
Blood glucose levels after dosing (male C57BL6 mice; 3 μg/kg subcutaneously, 60 minutes): 201.1 ± 13.2 mg/dL
Blood glucose levels after dosing (male C57BL6 mice; 3 μg/kg subcutaneously, 120 minutes): 172.8 ± 8.9 mg/dL
Blood glucose levels after dosing (male C57BL6 mice; 10 μg/kg subcutaneously, 0 minutes): 146.0 ± 8.2 mg/dL
Blood glucose levels after dosing (male C57BL6 mice; 10 μg/kg subcutaneously, 15 minutes): 257.3 ± 7.7 mg/dL
Blood glucose levels after dosing (male C57BL6 mice; 10 μg/kg subcutaneously, 30 minutes): 294.0 ± 13.3 mg/dL
Blood glucose levels after dosing (male C57BL6 mice; 10 μg/kg subcutaneously, 60 minutes): 222.2 ± 13.9 mg/dL
Blood glucose levels after dosing (male C57BL6 mice; 10 μg/kg subcutaneously, 120 minutes): 147.0 ± 6.7 mg/dL
ED50 (blood glucose increase) (male C57BL6 mice; calculated on the 30 minute glucose measurements, 10 μg/kg taken as maximum, subcutaneous): 3.34 µg/kg
